Assay results taken from patent publication US20240150356A1, “Pyrimidine amide compounds and use thereof” (ALPHALA CO., LTD., priority 2019, published 2024).

system: Hep3B cells (hepatocellular carcinoma cell line); assay: In vitro MTS cell viability assay (NCI-60 methodology), Hep3B; format: cell-based; settings: Homo sapiens, 48 h, Table 2, MTS, 2 days drug incubation, 50% reduction vs time zero, read-out: Hep3B LC50
In short: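 Following NCI-60 method, MTS viability of Hep3B measured 24 h after plating (time zero) and after a further 2-day exposure to five concentrations (2-fold series). LC50 defined where [(Ti−Tz)/Tz]×100 = −50.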

Structure (SMILES)	LC50 [µM]
Cn1ncc2c(-c3ccc(C(C)(C)C)cc3)nc(NC(=O)c3ccc([N+](=O)[O-])s3)nc21 [Compound 2-1, N-(4-(4-(tert-but)phenyl)-1-methyl-1H-pyrazolo[3,4-d]pyrimidin-6-yl)-5-nitrothiophene-2-carboxamide]	3.13

same assay, conditions: Homo sapiens, 48 h, Table 3, MTS, 2 days drug incubation, 50% reduction vs time zero, read-out: Hep3B LC50

Structure (SMILES)	LC50 [µM]
CC(C)n1cc2nc(-c3ccc(C(C)(C)C)cc3)nc(NC(=O)c3ccc([N+](=O)[O-])s3)c2c1 [Compound 3-12, N-(2-(4-(tert-butyl)phenyl)-6-isopropyl-6H-pyrrolo[3,4-d]pyrimidin-4-yl)-5-nitrothiophene-2-carboxamide]	> 10

same assay, conditions: Homo sapiens, 48 h, Table 4, MTS, 2 days drug incubation, 50% reduction vs time zero, read-out: Hep3B LC50

Structure (SMILES)	LC50 [µM]
CC(C)(C)c1ccc(-c2csc3c(NC(=O)c4ccc([N+](=O)[O-])s4)nc(-c4ccc(F)cc4)nc23)cc1 [Compound 4-19, N-(7-(4-(tert-butyl)phenyl)-2-(4-fluorophenyl)thieno[3,2-d]pyrimidin-4-yl)-5-nitrothiophene-2-carboxamide]	0.67

same assay, conditions: Homo sapiens, 48 h, Table 5, MTS, 2 days drug incubation, 50% reduction vs time zero, read-out: Hep3B LC50

Structure (SMILES)	LC50 [µM]
O=C(Nc1nc(-c2ccc(Cl)s2)nc2c1cnn2-c1ccccc1)c1ccc([N+](=O)[O-])s1 [Compound 5-19, N-(6-(5-chlorothiophen-2-yl)-1-phenyl-1H-pyrazolo[3,4-d]pyrimidin-4-yl)-5-nitrothiophene-2-carboxamide]	0.17
O=C(Nc1nc(-c2ccccc2)nc2c1cnn2-c1ccccc1)c1ccc([N+](=O)[O-])s1 [Compound 5-23, N-(1,6-diphenyl-1H-pyrazolo[3,4-d]pyrimidin-4-yl)-5-nitrothiophene-2-carboxamide]	0.43
O=C(Nc1nc(N2CCCC2)nc2c1cnn2-c1ccccc1)c1ccc([N+](=O)[O-])s1 [Compound 5-3, 5-nitro-N-(1-phenyl-6-(pyrrolidin-1-yl)-1H-pyrazolo[3,4-d]pyrimidin-4-yl)thiophene-2-carboxamide]	4.91
COc1ccc(-c2nc(NC(=O)c3ccc([N+](=O)[O-])s3)c3cnn(-c4ccccc4)c3n2)cc1 [Compound 5-36, N-(6-(4-methoxyphenyl)-1-phenyl-1H-pyrazolo[3,4-d]pyrimidin-4-yl)-5-nitrothiophene-2-carboxamide]	0.6

same assay, conditions: Homo sapiens, 48 h, Table 6, MTS, 2 days drug incubation, 50% reduction vs time zero, read-out: Hep3B LC50

Structure (SMILES)	LC50 [µM]
O=C(Nc1nc(N2CCC(F)(F)CC2)nc2c1cnn2-c1ccc(F)cc1)c1ccc([N+](=O)[O-])s1 [Compound 6-98, N-(6-(4,4-difluoropiperidin-1-yl)-1-(4-fluorophenyl)-1H-pyrazolo[3,4-d]pyrimidin-4-yl)-5-nitrothiophene-2-carboxamide]	0.43
COc1ccc(-n2ncc3c(NC(=O)c4ccc([N+](=O)[O-])s4)nc(NC4CCCCC4)nc32)cc1 [Compound 6-15, N-(6-(cyclohexylamino)-1-(4-methoxyphenyl)-1H-pyrazolo[3,4-d]pyrimidin-4-yl)-5-nitrothiophene-2-carboxamide]	> 1.25
CC(C)(C)c1ccc(-n2ncc3c(NC(=O)c4ccc([N+](=O)[O-])s4)nc(OCCN4CCOCC4)nc32)cc1 [Compound 6-60, N-(1-(4-(tert-butyl)phenyl)-6-(2-morpholinoethoxy)-1H-pyrazolo[3,4-d]pyrimidin-4-yl)-5-nitrothiophene-2-carboxamide]	0.89
COc1ccc(-n2ncc3c(NC(=O)c4ccc([N+](=O)[O-])s4)nc(-c4ccc(C)nc4)nc32)cc1 [Compound 6-17, N-(1-(4-methoxyphenyl)-6-(6-methylpyridin-3-yl)-1H-pyrazolo[3,4,d]pyrimidin-4-yl)-5-nitrothiophene-2-carboxamide]	0.19
Cc1ccc(-n2ncc3c(NC(=O)c4ccc([N+](=O)[O-])s4)nc(N4CCC[C@H]4CO)nc32)cc1 [Compound 6-3, (S)—N-(6-(2-(hydroxymethyl)pyrrolidin-1-yl)-1-(p-tolyl)-1H-pyrazolo[3,4-d]pyrimidin-4-yl)-5-nitrothiophene-2-carboxamide]	0.87
CCOCCOc1ccc(-c2nc(NC(=O)c3ccc([N+](=O)[O-])s3)c3cnn(-c4ccc(F)cc4)c3n2)cn1 [Compound 6-136, N-(6-(6-(2-ethoxyethoxy)pyridin-3-yl)-1-(4-fluorophenyl)-1H-pyrazolo[3,4-d]pyrimidin-4-yl)-5-nitrothiophene-2-carboxamide]	0.26
O=C(Nc1nc(-c2ccc(C(F)(F)F)cc2F)nc2c1cnn2-c1cccc(Cl)c1)c1ccc([N+](=O)[O-])s1 [Compound 6-41, N-(1-(3-chlorophenyl)-6-(2-fluoro-4-(trifluoromethyl)phenyl)-1H-pyrazolo[3,4-d]pyrimidin-4-yl)-5-nitrothiophene-2-carboxamide]	0.32
O=C(Nc1nc(-c2ccc(C(F)(F)F)cc2)nc2c1cnn2-c1ccc(OC(F)(F)F)cc1)c1ccc([N+](=O)[O-])s1 [Compound 6-88, 5-nitro-N-(1-(4-(trifluoromethoxy)phenyl)-6-(4-(trifluormethyl)phenyl)-1H-pyrazolo[3,4-d]pyrimidin-4-yl)thiophene-2-carboxamide]	0.42
CCOCCOCCOc1ccc(-c2nc(NC(=O)c3ccc([N+](=O)[O-])s3)c3cnn(-c4cccc(F)c4)c3n2)cn1 [Compound 6-96, N-(6-(6-(2-(2-ethoxyethoxy)ethoxy)pyridin-3-yl)-1-(3-fluorophenyl)-1H-pyrazolo[3,4-d]pyrimidin-4-yl)-5-nitrothiophene-2-carboxamide]	0.35
CCCOc1ccc(-c2nc(NC(=O)c3ccc([N+](=O)[O-])s3)c3cnn(-c4ccc(OC)cc4)c3n2)cn1 [Compound 6-25]	0.21
CC(C)(C)c1ccc(-n2ncc3c(NC(=O)c4ccc([N+](=O)[O-])s4)nc(N4CCCC4)nc32)cc1 [Compound 6-62, N-(1-(4-(tert-butyl)phenyl)-6-(pyrrolidin-1-yl)-1H-pyrazolo[3,4-d]pyrimidin-4-yl)-5-nitrothiophene-2-carboxamide]	0.71

same assay, conditions: Homo sapiens, 48 h, Table 7, MTS, 2 days drug incubation, 50% reduction vs time zero, read-out: Hep3B LC50

Structure (SMILES)	LC50 [µM]
O=C(Nc1nc(-c2ccc(F)nc2)nc2c1cnn2-c1ccc(C(F)(F)F)cn1)c1ccc([N+](=O)[O-])s1 [Compound 7-2, N-(6-(6-fluoropyridin-3-yl)-1-(5-(trifluoromethyl)pyridin-2-yl)-1H-pyrazolo[3,4,d]pyrimidin-4-yl)-5-nitrothiophene-2-carboxamide]	0.15
O=C(Nc1nc(-c2ccc(Cl)cc2)nc2c1cnn2Cc1ccccc1)c1ccc([N+](=O)[O-])s1 [Compound 7-16, N-(1-benzyl-6-(4-chlorophenyl)-1H-pyrazolo[3,4-d]pyrimidin-4-yl)-5-nitrothiophene-2-carboxamide]	> 1.25
O=C(Nc1nc(N2CCC[C@H]2CO)nc2c1cnn2-c1ccc(Cl)c(Cl)c1)c1ccc([N+](=O)[O-])s1 [Compound 7-11, (S)—N-(1-(3,4-dichlorophenyl)-6-(2-(hydroxymethyl)pyrrolidin-1-yl)-1H-pyrazolo[3,4-d]pyrimidin-4-yl)-5-nitrothiophene-2-carboxamide]	0.51

same assay, conditions: Homo sapiens, 48 h, Table 8, MTS, 2 days drug incubation, 50% reduction vs time zero, read-out: Hep3B LC50

Structure (SMILES)	LC50 [µM]
COC(=O)c1ccc(-c2nc(NC(=O)c3ccc([N+](=O)[O-])s3)c3cnn(C4CCCCCC4)c3n2)cc1 [Compound 8-12, methyl 4-(1-cycloheptyl-4-(5-nitrothiophene-2-carboxamido)-1H-pyrazolo[3,4-d]pyrimidin-6-yl)benzoate]	0.47
C[C@@H]1C[C@@H](n2ncc3c(NC(=O)c4ccc([N+](=O)[O-])s4)nc(-c4ccc(Cl)nc4)nc32)CC(C)(C)C1 [Compound 8-16, N-(6-(6-chloropyridin-3-yl)-1-((1R,5S)-3,3,5-trimethylcyclohexyl)-1H-pyrazolo[3,4-d]pyrimidin-4-yl)-5-nitrothiophene-2-carboxamide]	0.59

same assay, conditions: Homo sapiens, 48 h, Table 10, MTS, 2 days drug incubation, 50% reduction vs time zero, read-out: Hep3B LC50

Structure (SMILES)	LC50 [µM]
O=C(Nc1nc(-c2ccc(C(F)(F)F)cc2)nc2c1cnn2C1CCCCC1)c1ccc([N+](=O)[O-])s1 [Compound 10-24, N-(1-cyclohexyl-6-(4-(trifluoromethyl)phenyl)-1H-pyrazolo[3,4-d]pyrimidin-4-yl)-5-nitrothiophene-2-carboxamide]	0.64
CC1CC(C)CC(n2ncc3c(NC(=O)c4ccc([N+](=O)[O-])s4)nc(-c4ccc(F)cc4)nc32)C1 (centres unmarked) [Compound 10-67, N-(1-(3,5-dimethylcyclohexyl)-6-(4-fluorophenyl)-1H-pyrazolo[3,4-d]pyrimidin-4-yl)-5-nitrothiophene-2-carboxamide]	0.65
COC(=O)c1cccc(-c2nc(NC(=O)c3ccc([N+](=O)[O-])s3)c3cnn(C4CCCCC4)c3n2)c1 [Compound 10-31, methyl 3-(1-cyclohexyl-4-(5-nitrothiophene-2-carboxamido)-1H-pyrazolo[3,4-d]pyrimidin-6-yl)benzoate]	0.58
CC(=O)c1ccc(-c2nc(NC(=O)c3ccc([N+](=O)[O-])s3)c3cnn(C4CCCCC4)c3n2)cc1 [Compound 10-28, N-(6-(4-acetylphenyl)-1-cyclohexyl-1H-pyrazolo[3,4-d]pyrimidin-4-yl)-5-nitrothiophene-2-carboxamide]	1.93
O=C(Nc1nc(-c2ccc(OC(F)(F)F)cc2)nc2c1cnn2C1CCCCC1)c1ccc([N+](=O)[O-])s1 [Compound 10-26, N-(1-cyclohexyl-6-(4-(trifluoromethoxy)phenyl)-1H-pyrazolo[3,4-d]pyrimidin-4-yl)-5-nitrothiophene-2-carboxamide]	0.68
COc1ccc(-c2nc(NC(=O)c3ccc([N+](=O)[O-])s3)c3cnn(C4CCCCC4)c3n2)cn1 [Compound 10-21, N-(1-cyclohexyl-6-(6-methoxypyridin-3-yl)-1H-pyrazolo[3,4-d]pyrimidin-4-yl)-5-nitrothiophene-2-carboxamide]	1.12
